The numbers were not newly measured in US7958848B2, “Method for artificial breeding of farmed sturgeon” (priority 2009, dated 2011), which cites them from elsewhere.

Structures are written as SMILES.

For this series, the system named is goldfish. The following applies: 1-5 mg/kg body weight in combination with pituitary gland.

`O=c1[nH]c2ccccc2n1CCCN1CCC(n2c(=O)[nH]c3cc(Cl)ccc32)CC1` [Domperidone]: the “Induction of spawning and gonadal development” value is “induced spawning and gonadal development”.
